Data reported in patent publication US7301020B2, “Macrolide analogs and methods for identifying same” (priority 2003, dated 2007).

Key:
F-actin = molecular target: T1, F-actin (Oryctolagus cuniculus, UniProt P68135); experiment: KabC binding to and severing of Prodan-F-actin (fluorescence spectra, SDS-PAGE of supernatant and pellet); format: biochemical, rabbit
T1 construct: F-actin is purified from rabbit skeletal muscle using a standard protocol; Prodan (Acrylodan) fluorophore on Cys374 (in the fluorescence spectra); from tissue; host or cells: rabbit skeletal muscle
Method: FIG. 6: Fluorescence emission spectra of 5 μM Prodan-F-actin in the absence (a), and after selected times following the addition of KabC to 5 μM: (b), immediately after the addition of KabC (the emission spectrum is acquired in 30 seconds); (c), 15 min; (d), 39 min; (e), The spectrum of an equivalent concentration of the KabC-Prodan-G-actin complex. Inset: SDS-PAGE Analysis of KabC binding to F-actin. 100 μL of F-actin (10 μM) in […] was treated each with KabC (a: 0; b: 1; c: 4; d: 10 μM) for 30 min and airfuged at 120,000 g for another 30 min. Supernatant (S) and pellet (P) of each sample was run on SDS-PAGE.
F-actin: F-actin is purified from rabbit skeletal muscle using a standard protocol developed in the PI's laboratory (Marriott et al, 1988). The purity and activity of actin is analyzed using SDS-PAGE, polymerization assays and a motility assay (Heidecker et al, 1995).
The fluorescence emission of Prodan-F-actin is also immediately quenched upon adding KabC ([…]). However, a particularly attractive feature of the Prodan-actin probe is that the average energy of the fluorescence emission changes appreciably following the binding of ABPs, macrolides and in the transition of F-actin to G-actin. Careful analysis of the spectrum can yield information on the relative amounts of up to 4 different states in equilibrium (Marriott et al, 1988). This feature is useful to help understand how KabC binds to Prodan-F-actin. The addition of an equimolar amount of KabC to Prodan-F-actin leads to an immediate decrease in the fluorescence quantum yield, which is followed by a far slower red-shift in the average energy of the emission spectrum over time. […] In this experiment, the monomeric actin (supernatant, S) and F-actin (pellet, P) fractions of KabC treated F-actin are separated after a 60-minute incubation by high-speed centrifugation (120,000 g) and quantified by Coumassie staining of the acrylamide gel. […]

Prodan-G-actin = Prodan-G-actin (Oryctolagus cuniculus, UniProt P68135); experiment: Competition-binding assay with GS1 and CapG on Prodan-G-actin; set-up: F-actin is purified from rabbit skeletal muscle using a standard protocol; from tissue; host or cells: actin from rabbit skeletal muscle; CapG and GS1 expressed in E. coli M15; species or system rabbit
Method: FIG. 4: (A) CapG: (a), Prodan-G-actin (100 nM), (b), Prodan-G-actin-CapG; (c), same as (b) in the presence of 0.2 μM KabC; (B); GS1: (a), Prodan-G-actin 100 nM; (b), Prodan-G-actin-GS1; (c), same as (b) in the presence of 0.2 μM KabC.
Characterization of actin binding proteins: The actin-binding properties of the ABPs used in this study are evaluated from changes in the fluorescence emission spectrum of Prodan-actin and actin polymerization assays as described by Marriott et al (1988).
Trisoxazolemacrolides specifically compete with GS1 for the (+)-end binding site on actin. Gelsolin, a monomeric 80 kD cytoskeleton protein composed of six domains interacts with actin filaments in a complex, Ca^2+-dependent manner (Janmey et al, 1985; Burtnick et al, 1997). Gelsolin exerts two major effects once bound to an actin filament: first it severs the filament and second it remains tightly bound to the severed (+)-end and serves to block, or cap, further growth. […] Structural analyses of G-actin complexes with GS1 (McLaughlin et al, 1993) and KabC show these unrelated molecules bind to G-actin through common contact sites that include a patch of hydrophobic residues on the surface between sub-domains 1 and 3 and within the cleft that forms between the interface of sub-domains 1 and 3 (McLaughlin et al, 1993;). GS1 binding to Prodan-G-actin shifts the average energy of the fluorescence emission to the red and is accompanied by a decrease in the quantum yield (FIG. 4A) but not to the extent seen in the KabC-G-actin complex (FIG. 2).
Trisoxazolemacrolides specifically compete with CapG for the (+)-end binding site on actin. CapG, a Ca^2+-dependent, (+)-end actin filament capping protein, is found at high levels in macrophage cells where it regulates membrane ruffling and cell protrusions associated with phagocytosis and motility (Botelho et. al., 2000). […] The Ca^2+-dependent binding of CapG to Prodan-G-actin is accompanied by a dramatic blue-shift in the emission spectrum and an increase in quantum yield (FIG. 4B, curve b). The difference in fluorescence emission spectra between free and CapG-bound Prodan-G-actin is used to quantify the parameters for this binding reaction. The G-actin-CapG complex exists as a 1:1 complex and has a dissociation constant of 100 nM (data not shown). […] This conclusion is consistent with a comparison of high-resolution structures of G-actin with GS1 and KabC and a preliminary analysis of a 2.8 Angstrom structure of a CapG mutant (Vorobiev et al, PDB database, 2002). […] However the emission properties of the CapG-Prodan-G-actin complex are unaffected by the binding of LatA, DNAse and thymosin β4 (Tβ4), which is consistent with some structural data showing that these sequestering molecules bind closer to the ATP pocket and DNAse binding loop (Kabsch et al, 1990).

## Kabiramide C [KabC]
F-actin
  F-actin severing: single and slow severing event
F-actin; F-Actin:KabC 10:1 and 5:2
  actin fraction by SDS-PAGE after centrifugation: a significant fraction of the total actin exists as F-actin
F-actin; sub-stoichiometric KabC (1/10th)
  depolymerization of F-actin: not depolymerized
Prodan-G-actin
  displacement of CapG from Prodan-G-actin: displace CapG from Prodan-G-actin in a Ca^2+-independent manner
Prodan-G-actin; dilution and competition-binding studies
  stability of final G-actin-KabC complex: extremely stable and does not dissociate at a concentration below the equilibrium constant
Prodan-G-actin; presence of EGTA
  displacement of GS1 from Prodan-G-actin: displaces GS1
